In US20040204423A1, “Crystalline antifungal polymorph” (priority 1997, published 2004):

Experiment: Solid-state stability of polymorph Form I: conversion into other forms under normal storage and stress conditions
Format: physicochemical
Text: The three crystalline polymorphic forms of the compound of formula designated as Form 1, II and III can readily be distinguished from one another by examination of the characteristic x-ray Diffraction patterns (see FIGS. 1-3), the characteristic infrared spectra (see FIGS. 4-6) and the characteristic Differential Scanning Calorimetry ([…]) thermograms (FIGS. 7-9).

Measured: conversion into any other form

CCC([C@H](C)O)n1ncn(-c2ccc(N3CCN(c4ccc(OC[C@@H]5CO[C@@](Cn6cncn6)(c6ccc(F)cc6F)C5)cc4)CC3)cc2)c1=O (single isomer, unassigned; (-)) [Form 1]
did not convert into any other form: normal storage conditions (15′-30° C. and protected from light) | stress condition: 75% relative humidity at 40° C. for 6 weeks | stress condition: 75° C. for 6 weeks | stress condition: 97% relative humidity at ambient temperature for 2 minutes | stress condition: 150° C. for 2 hours
